Test: Clinical study in GD-3 patients (LEAP): Compound 2 concentrations in plasma and CSF
Type: in vivo, human
Excerpt: The endpoint assessments are related to safety, CSF biomarkers, pharmacokinetics/pharmacodynamics, systemic disease, and neuroimaging and neurological function (CNS/neurological manifestations).
Patients 18 years of age or older with a clinical diagnosis of GD3 and documented deficiency of acid beta-glucosidase activity having received treatment with ERT for at least 3 years and with imiglucerase (Cerezyme) at a stable monthly dose for at least 6 months prior to enrollment were included in the study. Patients must have reached the following GD therapeutic goals: hemoglobin level of ≥11.0 g/dL for females and ≥12.0 g/dL for males; platelet count 100 000/mm^3; spleen volume <10 multiples of normal (MN), or total splenectomy (provided the splenectomy occurred ≥3 years prior to randomization); liver volume <1.5 MN; and no bone crisis and free of symptomatic bone disease such as bone pain attributable to osteonecrosis and/or pathological fractures within the last year. Patients must have GD3 featuring oculomotor apraxia (supranuclear gaze palsy) characterized by a horizontal saccade abnormality.
During the study patients were evaluated for safety and tolerability, CSF and plasma biomarkers (glucosylceramide, GL-1; glucosylsphingosine, lyso-GL1), pharmacokinetics, markers for systemic disease (spleen and liver volume measured by magnetic resonance imaging (MRI), platelet count, hemoglobin levels), indicia of interstitial lung disease (high resolution pulmonary computed tomography (CT)), and horizontal saccadic eye movement. In addition, exploratory biomarkers were quantified in CSF of GD3 patients: ceramide (the precursor of GL-1), chitotriosidase (CHITO), GM3, and GPNMB. Symptoms of ataxia were measured using the SARA scale, neurological symptoms were measured using the trail making test, and functional MRI was used to assess neural connectivity in the brain.
It is believed that this is due to either compliance or dosing errors, and therefore, analysis is repeated without Patient 5's Week 26 and 52 data included.

[1] = plasma, Day 1, N = 11, 15 mg/day + imiglucerase

## CC(C)(NC(=O)O[C@@H]1CN2CCC1CC2)c1csc(-c2ccc(F)cc2)n1 [Compound 2, (S)-quinuclidin-3-yl 2-(2-(4-fluorophenyl)thiazol-4-yl)propan-2-ylcarbamate]
CSF, Day 1, N = 6, 15 mg/day + imiglucerase
  Concentration 2-4 hours post dose (mean ± SD): <LLOQ
CSF, Week 4, N = 6, 15 mg/day + imiglucerase
  Concentration 2-4 hours post dose (mean ± SD): 4.56 ± 1.20 ng/mL
CSF, Week 4, N = 10 (Patient 5 excluded), 15 mg/day + imiglucerase
  Concentration 2-4 hours post dose (mean ± SD): 6.63 ± 2.42 ng/mL
CSF, Week 4, Patient 5 Only
  Concentration 2-4 hours post dose: 3.05 ng/mL
CSF, Week 26, Excluding Patient 5, 15 mg/day + imiglucerase
  Concentration 2-4 hours post dose (mean): 6.13 ng/mL
CSF, Week 26, N = 6, 15 mg/day + imiglucerase
  Concentration 2-4 hours post dose (mean ± SD): 5.26 ± 2.49 ng/mL
CSF, Week 26, N = 8 (Patient 5 excluded), 15 mg/day + imiglucerase
  Concentration 2-4 hours post dose (mean ± SD): 6.77 ± 1.96 ng/mL
CSF, Week 26, Patient 5 Only
  Concentration 2-4 hours post dose: 1.77 ng/mL
CSF, Week 52, Excluding Patient 5, 15 mg/day + imiglucerase
  Concentration 2-4 hours post dose (mean): 5.32 ng/mL
CSF, Week 52, N = 6, 15 mg/day + imiglucerase
  Concentration 2-4 hours post dose (mean ± SD): 4.43 ± 3.23 ng/mL
CSF, Week 52, N = 10 (Patient 5 excluded), 15 mg/day + imiglucerase
  Concentration 2-4 hours post dose (mean ± SD): 6.14 ± 3.44 ng/mL
CSF, Week 52, Patient 5 Only
  Concentration 2-4 hours post dose: <LLOQ
GD3 patients, 15 mg/day + imiglucerase
  steady state concentration reached in plasma and CSF: ≤ 4 Week
Patient 1, 52-week measurement, rifampicin Week 39 to Week 51
  plasma and CSF concentrations under co-treatment with CYP3A4 inducer rifampicin: significant drop in plasma and CSF concentrations
Patient 5, Week 26 (compliance or dosing errors believed)
  lower concentrations of Compound 2 in plasma and CSF: about 50%
Patient 5, Week 52
  concentrations of Compound 2 in plasma and CSF: undetectable
Plasma, Week 4, N = 10 (Patient 5 excluded), 15 mg/day + imiglucerase
  Concentration 2-4 hours post dose (mean ± SD): 116 ± 48.1 ng/mL
Plasma, Week 4, Patient 5 Only
  Concentration 2-4 hours post dose: 102 ng/mL
Plasma, Week 26, N = 10 (Patient 5 excluded), 15 mg/day + imiglucerase
  Concentration 2-4 hours post dose (mean ± SD): 120 ± 40.1 ng/mL
Plasma, Week 26, Patient 5 Only
  Concentration 2-4 hours post dose: 53.3 ng/mL
Plasma, Week 52, N = 10 (Patient 5 excluded), 15 mg/day + imiglucerase
  Concentration 2-4 hours post dose (mean ± SD): 114 ± 65.8 ng/mL
Plasma, Week 52, Patient 5 Only
  Concentration 2-4 hours post dose: <LLOQ
From plasma and CSF concentrations, N = 6, 15 mg/day + imiglucerase
  crossing of the blood-brain barrier: effectively cross the blood-brain barrier in all patients
plasma, Day 1, N = 6, 15 mg/day + imiglucerase
  Concentration 2-4 hours post dose (mean ± SD): 39.7 ± 12.6 ng/mL
[1]
  AUC0-24 (mean ± SD): 851 ± 282 ng·h/mL
  Cmax (mean ± SD): 58.1 ± 26.4 ng/mL
plasma, Week 4, N = 6, 15 mg/day + imiglucerase
  Concentration 2-4 hours post dose (mean ± SD): 92.3 ± 36.4 ng/mL
plasma, Week 26, Excluding Patient 5, 15 mg/day + imiglucerase
  Concentration 2-4 hours post dose (mean): 112 ng/mL
plasma, Week 26, N = 6, 15 mg/day + imiglucerase
  Concentration 2-4 hours post dose (mean ± SD): 102.0 ± 49.5 ng/mL
plasma, Week 52, Excluding Patient 5, 15 mg/day + imiglucerase
  Concentration 2-4 hours post dose (mean): 84 ng/mL
plasma, Week 52, N = 6, 15 mg/day + imiglucerase
  Concentration 2-4 hours post dose (mean ± SD): 69.8 ± 58.3 ng/mL
